Read-outs that look alike come from different tables or passages of the source. Each block holds one compound with its values, some of them ahead of it.
Experiments:
plasma proteins = assay: In vitro plasma protein binding (rapid equilibrium dialysis); type: in vitro ADME; conditions: pH 7.4, dog plasma, 160, 400 and 1600 ng/ml (0.4, 1, 4 µM), 37°C, mean values
Method: Equilibrium dialysis studies were performed using the Rapid Equilibrium Dialysis (RED) devices (Waters et al., [2008]) that consist of two chambers separated with a dialysis membrane with a cut‐off of 8.0 kDa (Pierce Biotechnology, ThermoFisher Scientific). The plasma protein binding was determined with blank canine plasma spiked with enflicoxib or its pyrazol metabolite. The highly bound compound tolterodine was used as a positive control. Stock solutions of the tested compounds were prepared at 10 mM concentration in DMSO and were immediately used or stored at −20 °C (±5°C) until further use.
Samples were prepared by spiking dog plasma with the compounds at three increasing concentrations (0.4 µM, 1 µM and 4 µM). Plasma samples were loaded (200 µl) in the donor chambers while the opposite chamber contained 350 µl of dialysis buffer (0.1 M phosphate buffer, pH 7.4). Dialysis was run at 37°C for 4 h with continuous shaking. […] The unbound fractions for enflicoxib or its pyrazol metabolite were determined by LC‐MS/MS using a modification of the previously described method. […]
The percent of binding to plasma proteins was calculated as: %Protein binding = (Cdonor‐Cacceptor)/Cdonor∗100. where: Cdonor = Concentration in the donor chamber after dialysis; Cacceptor = Concentration in the acceptor chamber after dialysis. […]
For each plasma sample, protein binding was determined in triplicate.

[1] = In vitro blood to plasma partitioning; conditions: female, Beagle, dog, whole blood
Method: Whole blood was obtained from 3 untreated female Beagle dogs (located in Isoquimen SL, Sant Feliu de Codines, Barcelona, Spain) and pooled into two different batches. Lithium heparin was used as anticoagulant. Blood was maintained in a rotator shaker at room temperature before use.
The derived working solutions were freshly prepared each day of experimentation.
The haematocrit (H), percent of total blood cells in whole blood samples (v/v), was determined before the assay. […] The samples were incubated separately (n = 3) at ca 37°C for 60 min under gentle agitation in a rotator shaker in polypropylene tubes. The concentration of organic solvent in the incubates was kept below 0.05% to prevent haemolysis. Reference plasma was incubated similarly in Eppendorf protein LoBind tubes as a surrogate matrix of whole blood to assess total drug concentration (Cb).
For the enflicoxib and pyrazol metabolite determination, the plasma specimens were mixed with AcN containing the internal standard celecoxib for protein precipitation (1:3 ratio plasma: solution). […] After centrifugation, the supernatants were diluted with 0.1% FA in water: AcN (90:10) and injected into the LC‐MS/MS system. […] Blank samples were processed as described before, and were used to check the selectivity and carry‐over of the LC‐MS/MS analytical runs.
The quantification of each test item in plasma was performed using calibration curves ranging from 0.05 to 20 µg/ml. […] In both cases, the LC‐MS/MS response ratios (peak area of analyte/peak area Internal Standard) were used for quantitation.
The analyte concentration obtained from LC‐MS/MS analysis in each sample was used to calculate the blood‐plasma concentration ratio (C b/C p) as follows:
C b/C p = [(concentration in reference plasma; Equivalent to concentration in whole blood) / (concentration in plasma from whole blood)].
From these values, the red blood cells (RBC) to plasma ratio (K RBC/PL) was also calculated using the following equation: KRBC/PL=1/H×Cb/Cp‐1+1 where H: haematocrit.

COX‐2 = conditions: in vitro and in vivo; ref Iñiguez et al., 2010; Wagemakers et al., 2009; cited from earlier work
[2] = parameters: method as in Ecuphar/Animalcare internal data; conditions: ref Ecuphar/Animalcare internal data; cited from earlier work
[3] = Single intravenous dose pharmacokinetic study
Method: (§1) For the IV administration, a stable 2 mg/ml enflicoxib injectable solution was prepared in a vehicle containing 20% ethanol, 8% kolliphor HS‐15 and 72% water, and sterilised using a ≤0.22‐µm syringe filter. To avoid administering an excessive volume of product, dogs in the IV group received a single dose of 2 mg/kg and were followed for 35 days. A 22‐gauge ¾” catheter was introduced into the cephalic vein, using aseptic technique. A syringe with sterile saline was used to test the patency of the vein. The calculated volume of the solution was slowly administered through the catheter over approximately 1 min. Approximately 1–2 ml of sterile saline was used to flush the catheter following drug administration.
(§2) Blood samples (2 ml) were collected from the jugular vein in K3EDTA tubes for determination of plasma concentrations of enflicoxib and its metabolites, at the following time points:
(§3) Blood samples were centrifuged within 30 min after collection at 2500 g for 10 min at ca. +5 °C. The resultant plasma was divided into 2 aliquots and frozen at ca. −20°C until analysis.
(§4) Method for enflicoxib and its pyrazol metabolite in plasma involved its extraction from 100 µL samples by solid phase extraction (Oasis MCX 30 μm 96‐well plates, 10 mg; Waters) and separated by reverse‐phase liquid chromatography on a Luna PFP (2) column (3 μm, 50 × 4.6 mm; Phenomenex), in gradient mode elution using 0.1% FA in water and MeOH 60:40 (v/v) as mobile phase flushed a flow rate of 1 ml/min. Celecoxib was used as internal standard.
(§5) The pharmacokinetic parameters were obtained from the individual plasma concentration‐time profiles of enflicoxib or its metabolites in each animal, by non‐compartmental analysis using Phoenix® WinNonLin® software (version 8.0. Pharsight Corporation). For all calculations, values below lower limit of quantification (BLLOQ) were considered as “0” except trailing concentrations, which were excluded from calculations.
(§6) Additional pharmacokinetic parameters calculated for the IV treatment were plasma clearance (CL) as CL = Dose/AUCinf; volume of distribution at steady‐state (Vss) as Vss = MRTINF × CL; volume of distribution based on the terminal phase (Vz) as Vz = CL/ λz); and Mean resident time (MRT) was calculated as MRT = AUMC/AUC, with AUMC being the area under the first moment curve. For enflicoxib, C0 was calculated as the extrapolated plasma concentration at time zero after IV administration.

[4] = Single oral dose pharmacokinetic study, fed or fasted; conditions: for bioavailability / half-life / Tmax: both, Beagle, dog, plasma; for bioavailability: F% (absolute oral bioavailability); for Tmax: single oral 8 mg/kg enflicoxib, median [min-max]
From the text: (§7) Thirty healthy Beagle dogs (males and females) of 1–5 years old at the time of dosing, and bodyweight between 7.4 and 12.3 kg, were housed indoors in climate‐controlled facilities in accordance with accepted laboratory animal care and use guidelines. As the animals belonged to the same centre, they were acclimatised for 5 days before study initiation.
(§8) Dogs were offered approximately 400 g of pelleted canine feed once daily. Fresh potable water was offered ad libitum. All dogs, except those in the Oral‐Fed group, were fasted overnight before dosing and food was offered after the 4‐h blood collection. Dogs in the Oral‐Fed group were supplied with 50% of their daily food ration approximately 1 h before administration, and the remainder of the food was given after the first 15‐min blood collection period post administration.
(§9) The oral groups received a single oral nominal dose of 8 mg/kg of enflicoxib (Daxocox® tablets for dogs, Ecuphar/Animalcare) in its final formulation and were followed for 126 days. The dog’s mouth was opened, the dose placed towards the back of the tongue, and 5 ml of water was administered following the dose to aid in swallowing.
as §2
(§10) Oral groups: Before administration (pre‐dose; Day 1 to Day 0), 15 and, 30 min, 1, 2, 4, 6, 8, 12, 24, 48 h and 3, 4, 6, 7, 10, 14, 21, 28, 42, 56, 70, 84, 98, 112, and 126 days post administration, with the aim to characterise the complete pharmacokinetic profile of the pyrazol metabolite.
as §3
(§11) Plasma concentrations of enflicoxib and its metabolites were measured by two HPLC methods coupled with MS/MS detection (MRM) in negative ion electrospray mode.
as §4, §5

[5] = Distribution into synovial fluid after IV administration; conditions: day 35 after IV 2 mg/kg enflicoxib
From the text: (§12) The distribution into synovial fluid was prospectively investigated in samples corresponding to the last collection timepoint after the IV administration.
(§13) Samples of synovial fluid from the 10 dogs in the IV group were obtained under anaesthesia at 35 days post administration. Blank synovial fluid was obtained from 8 non‐dosed dogs at the same study facilities and pooled before being used for preparation of calibration curve and quality control samples for the qualification of the bioanalytical method.
(§14) Method for hydroxylated pyrazoline metabolite in plasma and for enflicoxib, pyrazol metabolite and hydroxylated pyrazoline metabolite in synovial fluid used the protein‐precipitation technique for extraction from dog samples (50 µl). The analytes were separated by reverse‐phase liquid chromatography on a Kinetex F5 100 Å column (100 × 3.0 mm; Phenomenex), in gradient mode elution using 0.1% FA in water and MeOH as mobile phase flushed a flow rate of 0.75 ml/min. Celecoxib was also used as internal standard.
(§15) For synovial fluid samples, the ratio of synovial fluid to plasma for enflicoxib and its metabolites was calculated at day 35 after IV administration.

[6] = Multiple dose oral toxicokinetic (target animal safety) study; conditions: for AUC / Cmax: both, Beagle, dog, plasma, po; for AUC: AUC168, group 1X; for accumulation ratio, loading dose normalised to maintenance dose: weeks 13 and 31 vs week 1, all dose levels
From the text: (§16) This study was designed as a Target Animal Safety (TAS) study, to assess the effects of repeated oral administrations of enflicoxib at either the recommended dose (1X), three times the dose (3X) or five times the dose (5X), that were compared to an untreated group (placebo, 0X) and followed the internationally agreed TAS guideline (VICH GL[43], [2008]). Blood samples were taken during the study to assess the dose‐exposure proportionality after single and repeated dose administrations.
(§17) Thirty‐two male and female healthy Beagle dogs, 8–10 months old and experimentally naïve, were obtained from a laboratory animal supplier. All animals were acclimatised for 28 days before study initiation. All dogs were housed in pairs of the same sex and dose group in indoor pens under temperature and humidity‐controlled conditions (15 to 24°C, 40–70% RH). Artificial lighting was provided for approximately 12 h per day. […] For each group, periods of exercise and socialisation were permitted daily. Animals were fed daily with 400 g of a certified commercial pelleted diet.
(§18) Dogs were stratified by sex and weight, (16 males weighing 6.7–9.9 kg and 16 females weighing 5.3–7.0 kg) and allocated to four groups (0X, 1X, 3X and 5X) using a pseudo‐random body weight stratification procedure, which yielded groups of four dogs of each sex with approximately equal mean body weight. Dogs were distributed in a block of several adjacent pens and identified by a microchip inserted shortly after arrival.
(§19) Enflicoxib was supplied as commercial Daxocox® tablets containing 15, 30, 45, 70 or 100 mg of enflicoxib (Ecuphar/Animalcare). The number and size of the tablets administered orally were calculated weekly based on the most recent body weights and the target dose level required. Tablets were administered once weekly, for a total of 13 weeks (5X group) or 32 weeks (0X, 1X and 3X groups). Tablets administration was followed by 10–20 ml tap water to facilitate passage of drug to the stomach.
(§20) Blood samples were collected as described for the determination of blood concentrations of enflicoxib and its pyrazol metabolite. The sampling schedule was at 6 h (on week 1 only), 24, 48, 72, 96, 120, 144 and 168 h post dose in weeks 1, 13 and 31, Additionally, weekly samples were taken prior to each dose throughout the study. Plasma was obtained and stored as described before.
(§21) The AUCt and AUCinf values were calculated with linear trapezoidal rule, and the extrapolation of AUCt to obtain AUCinf was performed using the observed concentration at the last time point. Due to the limited time between doses, the terminal rate constants (λz), and corresponding terminal half‐lives (t1/2), were calculated only for the parent compound. […] The accumulation ratios, based on AUC168 values of both compounds, were calculated at weeks 13 (last experimental week for the 5X group) and 31 (last experimental week for the other groups).
(§22) For the repeated oral dose study, analyses of variance were performed for week 1 and week 13 data separately, including all three dose levels to assess dose proportionality. For weeks 13 and 31, the analysis was done for the low and mid dose levels only, adjusted to 1 mg/kg. The factors in these analyses were dose group, time, sex and their interactions. Animal was included as a blocking factor since the same animals were bled on each sampling day. The data were logarithmically transformed prior to its analysis using SAS 9.4 (SAS Institute (2002) SAS OnlineDoc® Version Nine. SAS Institute Inc.).

[7] = dog, in vivo
From the text: as §7, §8, §9, §2, §10, §3, §11, §4, §5

[8] = dog, in vivo, iv, 2 mg/kg
Method: as §1, §2, §3, §4, §5, §6

[9] = dog, in vivo, iv, 2 mg/kg; remark: listed apart in the source
From the text: as §12, §13, §14, §15

[10] = dog, in vivo; remark: listed apart in the source
From the text: as §16, §17, §18, §19, §20, §21, §22

[11] = both, Beagle, dog, plasma, iv, 2 mg/kg

SMILES: NS(=O)(=O)c1ccc(N2N=C(C(F)(F)F)C[C@H]2c2ccc(F)cc2F)cc1 (racemic) [Enflicoxib, 4‐(5‐(2,4‐difluorophenyl)‐3‐(trifluoromethyl)‐4,5‐dihydro‐1H‐pyrazol‐1‐yl) benzenesulfonamide]
fraction unbound at 4 h (plasma proteins): 0.0099 to 0.0262
blood plasma ratio at 60 min, 1 µg/ml [1]: 1.07
blood plasma ratio at 60 min, 5 µg/ml [1]: 0.66
blood plasma ratio at 60 min, 15 µg/ml [1]: 0.66
inhibition of COX‐2 enzymatic activity (COX‐2): potent inhibitors
solubility in water [2]: practically insoluble
t1/2 ([3]; IV 2 mg/kg enflicoxib, harmonic mean [min-max], pyrazol metabolite n=4): 19.77 [11.2–29.7] h
Vd [3, 11]: 4 L/kg
clearance [3, 11]: 2.33 mL/min/kg
half-life ([3]; both, Beagle, dog, plasma, iv, 2 mg/kg, t1/2, IV 2 mg/kg enflicoxib, harmonic mean [min-max], pyrazol metabolite n=4): 20 h
bioavailability ([4]; oral, 8 mg/kg, oral 8 mg/kg fasted vs IV 2 mg/kg): 44%
bioavailability ([4]; oral, 8 mg/kg, oral 8 mg/kg fed vs IV 2 mg/kg): 63%
half-life ([4]; other: IV or oral, whatever the feeding condition, terminal elimination half‐life (t1/2), all routes of administration (IV or oral, whatever the feeding condition)): 20 h
bioavailability ([4]; po, 8 mg/kg, oral 8 mg/kg fed vs IV 2 mg/kg): 63.4%
Tmax ([4]; po, 8 mg/kg, fasted): 4 h
Tmax ([4]; po, 8 mg/kg, fed): 2 h
half-life ([4]; po, 8 mg/kg, t1/2, single oral 8 mg/kg enflicoxib, fasted, harmonic mean): 18.3 h
half-life ([4]; po, 8 mg/kg, t1/2, single oral 8 mg/kg enflicoxib, fed, harmonic mean): 19.7 h
F% (absolute oral bioavailability) ([4]; oral 8 mg/kg fasted vs IV 2 mg/kg): 44.1%
increase of extent of absorption and plasma exposure by food ([4]; oral 8 mg/kg, fed vs fasted): 43%
Frel% (relative oral bioavailability) ([4]; oral fed vs oral fasted, 8 mg/kg): 143.3%
synovial fluid concentration [5]: BLLOQ
tolerability ([6]; all three dose levels (1X, 3X, 5X), weekly oral, all dogs): well tolerated
AUC ([6]; 4 mg/kg, week 13, mean ± SD): 47600 ng·h/mL
AUC ([6]; 4 mg/kg, week 31, mean ± SD): 64000 ng·h/mL
Cmax ([6]; 4 mg/kg, group 1X (8 + 4 mg/kg weekly oral), week 1, mean ± SD, n=8): 2020 ± 461 ng/mL
Cmax ([6]; 4 mg/kg, group 1X, week 13, mean ± SD): 878 ± 319 ng/mL
Cmax ([6]; 4 mg/kg, group 1X, week 31, mean ± SD): 1450 ± 374 ng/mL
AUC ([6]; 8 mg/kg, week 1, mean ± SD): 87900 ng·h/mL
Cmax ([6]; 12 mg/kg, group 3X, week 13, mean ± SD): 2760 ± 817 ng/mL
Cmax ([6]; 12 mg/kg, group 3X, week 31, mean ± SD): 3380 ± 1120 ng/mL
Cmax ([6]; 20 mg/kg, group 5X (40 + 20 mg/kg), week 1, mean ± SD): 9590 ± 2040 ng/mL
Cmax ([6]; 20 mg/kg, group 5X, week 13, mean ± SD): 4390 ± 1050 ng/mL
Cmax ([6]; 24 mg/kg, group 3X (12 + 24 mg/kg as printed), week 1, mean ± SD): 6050 ± 1390 ng/mL
Normalised accumulation ratio ([6]; group 1X, week 13 vs week 1, based on AUC168): 0.93
Normalised accumulation ratio ([6]; group 1X, week 31 vs week 1): 1.05
Normalised accumulation ratio ([6]; group 3X, week 13 vs week 1): 0.9
Normalised accumulation ratio ([6]; group 3X, week 31 vs week 1): 1.15
Normalised accumulation ratio ([6]; group 5X, week 13 vs week 1): 1
time of Cmax ([6]; week 1 after loading dose, all groups, 6 h = first sampling time): 6 h
pre‐dose plasma concentration ([6]; week 13, all groups): below 100 ng/ml
correlation coefficient, adjusted PK parameters (Cmax, AUC168) vs dose level ([6]; weeks 1 and 13, actual doses, linear regression): higher than 0.8
accumulation ratio, loading dose normalised to maintenance dose [6]: ~1
accumulation ratio, loading dose normalised to maintenance dose ([6]; listed as parent compound): less than 1
accumulation ratio based on AUC168 (not normalised) ([6]; weeks 13 and 31 vs week 1, all three dose levels): approximately 0.5

F% (absolute oral bioavailability) [7]: 49.3%
mean terminal elimination half‐life (t½) [7]: 408 h
terminal elimination half‐life (t1/2) [7]: 336 to 406 h
AUCinf ([7]; po, 8 mg/kg): 4,22,700 ± 2,54,500 (60.2) ng·h/ml
AUClast ([7]; po, 8 mg/kg): 3,91,500 ± 2,55,100 (65.2) ng·h/ml
Cmax ([7]; po, 8 mg/kg): 890.3 ± 551.3 (61.9) ng/ml
Tmax ([7]; po, 8 mg/kg): 120.00 [48.00–336.00] h
Tmax, oral doses (fed and fasted), median ([7]; po, 8 mg/kg): 120 to 144 h
t1/2 ([7]; po, 8 mg/kg): 353.9 [255–491] h
AUClast [8]: 1,56,500 ± 39,810 (25.4) ng·h/ml
Cmax [8]: 384.5 ± 123.8 (32.2) ng/ml
MRTlast [8]: 329.5 ± 27.46 (8.3) h
Tmax [8]: 96 [48–96] h
ratio synovial fluid versus plasma [9]: 0.031-0.078
accumulation ratio between weeks 13 and 31, range of dogs [10]: 0.56-1.49
accumulation ratio week 31 vs week 13 [10]: around 1.3
correlation coefficient, adjusted PK parameters (Cmax, AUC168) vs dose level [10]: > 0.9
SMILES: NS(=O)(=O)c1ccc(-n2nc(C(F)(F)F)cc2-c2ccc(F)cc2F)cc1 [Pyrazol metabolite]
inhibition of COX‐2 enzymatic activity (COX‐2): potent inhibitors
